Measured values reported in the supplement of paper PMC10307832.

Experiments:
Assay in all cases: relative viability (nuclei count vs DMSO), 5 days (fraction); higher = more cells survive
IU1-47 + Palbociclib = compound: CC1=CC(=C(N1C2=CC=C(C=C2)Cl)C)C(=O)CN3CCCCC3 [IU1-47] + CC(=O)c1c(C)c2cnc(Nc3ccc(N4CCNCC4)cn3)nc2n(C2CCCC2)c1=O [Palbociclib] (partner 0.5 µM)
How it was run: (§1)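 Nuclei were stained with Hoechst during a one-step fixation (final 0.05% Triton X-100, 1% formaldehyde, 1 ug/ml Hoechst) carried out 5 days after dosing, then counted on 4× images. The cells, lung cancer lines in 1536-well plates, had been dosed by pin tool the day after seeding with one drug alone or a fixed anchor-drug dose plus five library-drug doses (not always all listed) in √10 steps. Relative viability is the nuclei count in treated wells divided by that in vehicle wells, and each value is the median of duplicate plates.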

IU1-47 + Crizotinib = compound: CC1=CC(=C(N1C2=CC=C(C=C2)Cl)C)C(=O)CN3CCCCC3 [IU1-47] + C[C@@H](Oc1cc(-c2cnn(C3CCNCC3)c2)cnc1N)c1c(Cl)ccc(F)c1Cl [Crizotinib] (partner 1 µM)
How it was run: as §1

FG-4592 + Bortezomib = compound: Cc1nc(C(=O)NCC(=O)O)c(O)c2ccc(Oc3ccccc3)cc12 [FG-4592] + CC(C)C[C@H](NC(=O)[C@H](Cc1ccccc1)NC(=O)c1cnccn1)B(O)O [Bortezomib] (partner 0.002 µM)
How it was run: as §1

FG-4592 + Vorinostat = compound: Cc1nc(C(=O)NCC(=O)O)c(O)c2ccc(Oc3ccccc3)cc12 [FG-4592] + O=C(CCCCCCC(=O)Nc1ccccc1)NO [Vorinostat] (partner 1 µM)
How it was run: as §1

Row | Cell Line | relative viability (IU1-47 + Palbociclib; first compound 0.08 µM) | relative viability (IU1-47 + Palbociclib; first compound 0.253 µM) | relative viability (IU1-47 + Palbociclib; first compound 0.8 µM) | relative viability (IU1-47 + Palbociclib; first compound 2.53 µM) | relative viability (IU1-47 + Palbociclib; first compound 8 µM) | relative viability (IU1-47 + Crizotinib; first compound 0.08 µM) | relative viability (IU1-47 + Crizotinib; first compound 0.253 µM) | relative viability (IU1-47 + Crizotinib; first compound 0.8 µM) | relative viability (IU1-47 + Crizotinib; first compound 8 µM) | relative viability (FG-4592 + Bortezomib; first compound 0.08 µM) | relative viability (FG-4592 + Bortezomib; first compound 0.253 µM) | relative viability (FG-4592 + Bortezomib; first compound 0.8 µM) | relative viability (FG-4592 + Bortezomib; first compound 2.53 µM) | relative viability (FG-4592 + Bortezomib; first compound 8 µM) | relative viability (FG-4592 + Vorinostat; first compound 0.08 µM) | relative viability (FG-4592 + Vorinostat; first compound 0.253 µM) | relative viability (FG-4592 + Vorinostat; first compound 0.8 µM) | relative viability (FG-4592 + Vorinostat; first compound 2.53 µM) | relative viability (FG-4592 + Vorinostat; first compound 8 µM) | relative viability (IU1-47 + Crizotinib; first compound 2.53 µM)
1 | 201T | 0.377 | 0.417 | 0.361 | 0.391 | 0.399 | 1.08 | 1.04 | 1.05 | 1.04 | 1.11 | 1.12 | 1.04 | 1.1 | 1.08 | 0.905 | 0.933 | 0.807 | 0.972 | 0.993 | 
2 | A549 |  |  |  |  |  | 0.685 | 0.847 | 0.607 | 0.579 |  |  |  |  |  |  |  |  |  |  | 0.612
3 | A-427 | 0.488 | 0.521 | 0.536 | 0.556 | 0.499 | 1.04 | 0.938 | 0.944 | 0.634 | 0.925 | 0.979 | 0.983 | 0.946 | 0.954 | 0.84 | 0.85 | 0.845 | 0.806 | 0.78 | 
4 | ABC-1 | 0.763 | 0.921 | 0.65 |  | 0.582 | 1.12 | 1.13 | 0.796 | 0.8 | 0.365 |  | 0.308 | 0.359 | 0.22 | 1.14 | 1.01 |  | 1.14 | 1.03 | 
5 | BEN | 0.54 | 0.452 | 0.448 | 0.497 | 0.512 | 0.841 | 0.99 | 1.03 | 0.752 | 0.608 | 0.733 | 0.701 | 0.825 | 0.546 | 0.558 | 0.566 | 0.459 | 0.546 | 0.547 | 0.816
6 | CAL-12T | 0.402 | 0.306 | 0.413 | 0.508 | 0.324 | 0.689 | 0.713 | 0.479 | 0.518 | 1.05 | 1.07 | 0.601 | 1.15 | 0.902 | 0.624 | 0.583 | 0.651 | 0.585 | 0.496 | 0.839
7 | COR-L23 | 0.313 | 0.32 | 0.284 | 0.245 | 0.279 | 0.735 | 0.704 | 0.669 | 0.609 | 1.03 | 0.874 | 1.26 | 0.888 | 0.889 | 0.414 | 0.373 | 0.427 | 0.337 | 0.457 | 0.817
8 | COR-L 105 | 0.479 | 0.449 | 0.399 | 0.388 | 0.438 | 0.793 | 0.839 | 0.767 | 0.627 | 0.75 | 0.725 | 0.796 | 0.807 | 0.674 | 0.723 | 0.755 | 0.843 | 0.699 | 0.769 | 0.94
9 | Calu-6 |  |  |  |  |  | 0.838 | 0.829 | 0.692 | 0.665 | 0.98 | 0.854 | 0.938 | 1.1 | 0.926 |  |  |  |  |  | 1.02
10 | ChaGo-K-1 | 0.96 | 0.915 | 1.05 | 0.897 | 0.819 | 1.04 | 1.21 | 1.24 | 0.954 | 1.04 | 0.873 | 0.726 | 1.11 | 0.533 | 0.694 | 0.819 | 0.687 | 0.758 | 0.693 | 1.31
11 | EBC-1 |  |  |  |  |  | 0.239 | 0.202 | 0.209 | 0.229 | 0.63 | 0.531 | 0.57 | 0.546 | 0.688 |  |  |  |  |  | 0.172
12 | EKVX | 0.391 | 0.397 | 0.419 |  | 0.347 | 0.981 | 1.14 | 1.05 | 0.793 | 1.1 | 0.94 | 1.06 | 1.17 | 0.885 | 0.869 | 0.619 | 0.64 | 0.706 | 0.784 | 0.892
13 | EMC-BAC-2 | 0.521 | 0.541 | 0.512 | 0.507 | 0.519 | 0.802 | 0.863 | 0.752 | 0.75 | 1.04 | 1.04 | 0.934 | 1.02 | 1 | 0.43 | 0.467 |  | 0.561 | 0.366 | 0.835
14 | EPLC-272H | 0.315 | 0.338 | 0.289 |  | 0.336 | 0.957 | 0.918 | 0.862 | 0.984 | 0.897 | 0.712 | 0.7 | 0.979 | 0.799 | 0.41 | 0.487 | 0.41 | 0.559 | 0.472 | 
15 | H3255 | 0.351 | 0.329 | 0.331 | 0.289 | 0.322 | 0.989 | 1.07 | 0.908 | 0.807 | 0.816 | 0.606 | 0.752 | 0.744 | 0.906 | 0.89 | 0.684 | 0.721 | 0.693 | 0.84 | 0.778
16 | HARA | 0.231 | 0.316 | 0.239 |  | 0.221 | 0.945 | 1.17 | 1.29 | 0.719 | 1.03 | 1.01 |  | 1.08 | 1.11 | 0.554 | 0.556 | 0.507 | 0.662 | 0.607 | 1.12
17 | HCC-15 | 0.795 | 0.765 | 0.82 | 0.595 | 0.703 | 0.949 | 0.879 | 0.908 | 0.704 | 1.01 | 0.913 | 1.07 | 1.07 | 0.999 | 0.975 | 0.796 | 0.776 | 0.82 | 0.829 | 0.825
18 | HCC-44 | 1.02 | 0.95 | 0.996 | 0.993 | 1.01 | 0.801 | 0.784 | 0.809 | 0.799 | 0.817 | 0.894 | 0.946 | 0.921 | 0.889 | 1.03 | 1.05 | 1.2 | 1.16 | 1.11 | 0.77
